Experimental findings from US11344510B2, “Arylcyclohexylamine derivatives and their use in the treatment of psychiatric disorders” (Gilgamesh Pharmaceuticals, Inc., priority 2019, dated 2022) are described below.

Series [1] addresses T1, serotonin transporter (SERT) (Homo sapiens, UniProt P31645).
T1 construct: expressed in transfected cells; host or cells: HEK293
Kind of series: Fluorescent substrate uptake inhibition, SERT. Type of series: cell-based. The conditions noted are these: 10 μM, HEK293 cells expressing SERT. How it is done: (§1) Uptake Inhibition. The ability of test compounds to block monoamine uptake by SERT, NET, DAT, and VMAT2 was determined using the Neurotransmitter Transporter Uptake Assay Kit manufactured by Molecular Devices (Cat #R8173). Briefly, stably transfected cells expressing the MAT of interest (HEK293 cells for SERT and NET; CHO cells for DAT) were grown and plated into 384-well plates at a concentration of 20,000 cells per well. Plates were then incubated for 16-20 h at 37° C. and 5% CO2. The medium was then aspirated and replaced with 25 μL of assay buffer (20 mM HEPES in HBSS, containing 0.1% BSA) containing the test compounds at the appropriate concentrations. Plates were then centrifuged at 300 rpm for 15 s and then incubated at 37° C. for 30 minutes. At this time, 25 μL of the proprietary fluorescent dye solution was added, the plates were incubated at 37° C. for 60 minutes, and then fluorescence was quantified on a plate reader (excitation wavelength=440 nm, emission wavelength=520 nm). The proprietary dye solution contains a mixture of 1) a fluorescent dye that mimics the endogenous substrates of MATs and is thereby actively transported to the intracellular compartment in the absence of an inhibitor and 2) a masking dye that inhibits the fluorescence of dye 1 in the extracellular compartment. Therefore, the overall fluorescence of the system increases as the fluorescent dye is transported into the cells.

Series [2] in a line: MLM stability (Low Activity). Type of series: in vitro ADME, CD-1 mice. The conditions noted are these: male, CD-1, mouse, liver microsomes, pH 7.4, Condition 1 (Low Activity), 0.50 mg protein/mL. How it is done: (§2) MLM Stability (Low Activity). Pooled MLM from male CD-1 mice (XenoTech M1000) were used. Microsomal incubations were carried out in multi-well plates. Liver microsomal incubation medium consisted of PBS (100 mM, pH 7.4), MgCl2 (1 mM), and NADPH (1 mM), with 0.50 mg of liver microsomal protein per mL. Control incubations were performed by replacing the NADPH-cofactor system with PBS. Test compounds (1 μM, final solvent concentration 1.0%) were incubated with microsomes at 37° C. with constant shaking. Six time points over 60 minutes were analyzed, with 60 μL aliquots of the reaction mixture being drawn at each time point. The reaction aliquots were stopped by adding 180 μL of cold (4° C.) acetonitrile containing 200 ng/mL tolbutamide and 200 ng/mL labetalol as internal standards (IS), followed by shaking for 10 minutes, and then protein sedimentation by centrifugation at 4000 rpm for 20 minutes at 4° C. Supernatant samples (80 μL) were diluted with water (240 μL) and analyzed for parent compound remaining using a fit-for-purpose liquid chromatography-tandem mass spectrometry (LC-MS/MS) method.
(§3) Data Analysis. The elimination constant (kel), half-life (t1/2) and intrinsic clearance (Clint) were determined in a plot of […] versus time, using linear regression analysis.

Series [3] concerns the target T2, vesicular monoamine transporter 2 (VMAT2) (Homo sapiens, UniProt Q05940).
T2 construct: expressed in transfected cells
Nature of the series: Fluorescent substrate uptake inhibition, VMAT2. Particulars: 10 μM, transfected cells. Type of series: cell-based. How it is done: as §1

Series [4] can be described thus: HLM stability (Low Activity, Alternative Method). Type of series: in vitro ADME. Particulars: both sexes, human, liver microsomes, pH 7.4, Condition 1 column, values marked *: Low Activity, 0.50 mg protein/mL. How it is done: as §2, with “HLM” for “MLM”, “Activity, Alternative Method).” for “Activity).”, “from adult” for “from”, “and female donors (Corning 452117)” for “CD-1 mice (XenoTech M1000)”
as §3
Background: Liver microsomes are vesicles of endoplasmic reticulum, rich in cytochrome P450 enzymes.

The target in series [5] is T3, norepinephrine transporter (NET) (Homo sapiens, UniProt P23975).
T3 construct: expressed in transfected cells; host or cells: HEK293
Kind of series: Fluorescent substrate uptake inhibition, NET. Type of series: cell-based. The conditions noted are these: 10 μM, HEK293 cells expressing NET. How it is done:
as §1

Series [6] is described as follows: RLM stability (Low Activity). Type of series: in vitro ADME, Sprague Dawley rats. Particulars: male, Sprague Dawley, rat, liver microsomes, pH 7.4, Condition 1 (Low Activity), 0.50 mg protein/mL. How it is done:
as §2, with “RLM” for “MLM”, “Sprague Dawley rats” for “CD-1 mice”, “R1000)” for “M1000)”
as §3

For series [7], the target named is T4, dopamine transporter (DAT) (Homo sapiens, UniProt Q01959).
T4 construct: expressed in transfected cells; host or cells: CHO (uptake)
Kind of series: Fluorescent substrate uptake inhibition, DAT. Type of series: cell-based. The conditions noted are these: 10 μM, CHO cells expressing DAT. How it is done: as §1

The target of series [8] is MK-801 binding site of the N-methyl-D-aspartate receptor (NMDAR). Kind of series: NMDAR radioligand binding with [3H]MK-801, Method B. The conditions noted are these: MK-801 site, Method B, male Sprague Dawley rat cortex, 5.0 nM [3H]MK-801; read-out: NMDAR Ki ± SEM. Also on record: species or system Sprague Dawley rat. How it is done: Radioligand Binding—Method B. Affinity of the test compounds for NMDAR was determined in radioligand binding experiments with [^3H]MK-801 by WuXi AppTec (Hong Kong) Limited, under the conditions described in Table 13.

T2 sequence (Q05940 whole entry, species assumed): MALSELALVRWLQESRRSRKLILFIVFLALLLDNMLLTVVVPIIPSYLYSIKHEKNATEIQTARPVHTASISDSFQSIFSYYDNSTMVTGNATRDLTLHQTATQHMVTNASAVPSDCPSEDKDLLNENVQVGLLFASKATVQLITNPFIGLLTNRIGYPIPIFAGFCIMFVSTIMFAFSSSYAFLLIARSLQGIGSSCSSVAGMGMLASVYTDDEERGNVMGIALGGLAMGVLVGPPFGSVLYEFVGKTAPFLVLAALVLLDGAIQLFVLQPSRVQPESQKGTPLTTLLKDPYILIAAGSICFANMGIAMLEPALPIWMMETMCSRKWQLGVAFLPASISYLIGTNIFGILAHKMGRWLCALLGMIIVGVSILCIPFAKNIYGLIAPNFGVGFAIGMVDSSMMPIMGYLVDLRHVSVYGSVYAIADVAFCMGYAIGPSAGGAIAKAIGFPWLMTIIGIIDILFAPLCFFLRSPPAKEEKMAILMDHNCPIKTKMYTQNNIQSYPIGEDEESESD
T4 sequence (Q01959 whole entry, species assumed): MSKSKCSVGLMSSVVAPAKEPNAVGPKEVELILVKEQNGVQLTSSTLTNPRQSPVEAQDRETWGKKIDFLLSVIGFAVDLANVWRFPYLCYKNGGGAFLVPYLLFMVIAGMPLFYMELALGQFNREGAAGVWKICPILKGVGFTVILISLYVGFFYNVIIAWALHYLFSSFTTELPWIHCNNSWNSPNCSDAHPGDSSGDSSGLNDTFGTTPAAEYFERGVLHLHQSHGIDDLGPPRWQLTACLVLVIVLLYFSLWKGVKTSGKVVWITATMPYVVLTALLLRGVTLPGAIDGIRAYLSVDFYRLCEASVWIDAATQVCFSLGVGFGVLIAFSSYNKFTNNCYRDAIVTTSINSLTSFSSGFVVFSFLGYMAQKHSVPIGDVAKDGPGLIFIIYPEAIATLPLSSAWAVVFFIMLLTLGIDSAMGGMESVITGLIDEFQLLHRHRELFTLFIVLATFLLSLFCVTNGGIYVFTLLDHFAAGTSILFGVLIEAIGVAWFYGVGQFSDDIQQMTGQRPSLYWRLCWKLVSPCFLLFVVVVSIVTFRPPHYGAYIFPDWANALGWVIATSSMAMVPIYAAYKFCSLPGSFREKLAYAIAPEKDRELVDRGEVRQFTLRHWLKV
T1 sequence (P31645 whole entry, species assumed): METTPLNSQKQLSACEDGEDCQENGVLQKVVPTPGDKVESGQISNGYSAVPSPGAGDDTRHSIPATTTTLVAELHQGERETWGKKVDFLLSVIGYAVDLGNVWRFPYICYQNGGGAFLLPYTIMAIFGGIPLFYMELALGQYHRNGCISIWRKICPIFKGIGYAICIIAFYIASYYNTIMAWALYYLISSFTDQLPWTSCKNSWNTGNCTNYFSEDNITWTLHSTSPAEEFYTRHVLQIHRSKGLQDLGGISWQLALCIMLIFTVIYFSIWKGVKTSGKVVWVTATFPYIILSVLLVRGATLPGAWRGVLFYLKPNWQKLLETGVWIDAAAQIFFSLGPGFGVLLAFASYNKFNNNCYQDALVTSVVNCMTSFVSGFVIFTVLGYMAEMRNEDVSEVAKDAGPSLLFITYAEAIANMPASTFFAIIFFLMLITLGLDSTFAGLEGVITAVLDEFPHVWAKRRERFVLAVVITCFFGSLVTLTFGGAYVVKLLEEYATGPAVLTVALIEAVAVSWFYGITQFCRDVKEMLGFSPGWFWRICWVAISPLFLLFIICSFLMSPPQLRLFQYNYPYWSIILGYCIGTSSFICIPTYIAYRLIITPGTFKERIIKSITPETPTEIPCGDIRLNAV
T3 sequence (P23975 whole entry, species assumed): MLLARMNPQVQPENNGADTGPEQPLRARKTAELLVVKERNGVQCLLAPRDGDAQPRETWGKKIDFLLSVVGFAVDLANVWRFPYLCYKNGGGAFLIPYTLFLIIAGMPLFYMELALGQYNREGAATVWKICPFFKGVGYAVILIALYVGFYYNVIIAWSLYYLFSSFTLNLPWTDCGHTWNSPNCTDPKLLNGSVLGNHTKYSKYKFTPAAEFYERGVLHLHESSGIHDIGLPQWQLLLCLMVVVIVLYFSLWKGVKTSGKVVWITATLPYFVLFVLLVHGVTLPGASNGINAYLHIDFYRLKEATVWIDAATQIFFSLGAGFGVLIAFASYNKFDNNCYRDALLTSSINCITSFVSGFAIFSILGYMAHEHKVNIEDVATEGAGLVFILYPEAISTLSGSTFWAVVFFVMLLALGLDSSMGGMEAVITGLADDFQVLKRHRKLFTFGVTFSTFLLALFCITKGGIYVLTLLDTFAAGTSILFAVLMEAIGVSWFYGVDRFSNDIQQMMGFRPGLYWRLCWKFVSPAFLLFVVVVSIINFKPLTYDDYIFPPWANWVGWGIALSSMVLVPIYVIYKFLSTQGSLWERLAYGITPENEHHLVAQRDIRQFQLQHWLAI

For the molecule `CCN(CC)[C@]1(c2ccccc2)CCCCC1=O` [Compound 25S, (S)-2-(diethylamino)-2-phenylcyclohexanone], the inhibition at 10 µM in series [1] is 45.6%; in series [3], 1.7%; in series [5], -0.13%; in series [7], 24.9%. Moreover, the half-life at 1 μM in series [2] came out at 8.6 min; in series [4] it was 42 min; in series [6], 14.5 min. Also, the microsomal CLint at 1 μM in series [2] was found to be 161 µL/min/mg; in series [4], 33 µL/min/mg; in series [6] it was 95.4 µL/min/mg. The Ki in series [8] was 5.2 µM.

With `CCN(CC)[C@@]1(c2ccccc2)CCCCC1=O` [Compound 25R, (R)-2-(diethylamino)-2-phenylcyclohexanone], the inhibition at 10 µM in series [1] was 26.9%; in series [3], -10.3%; in series [5] it was 20.8%; in series [7], 20.8%. Moreover, the half-life at 1 μM was 8.5 min in series [2], 49 min in series [4] and 15.3 min in series [6]. Further, the microsomal CLint at 1 μM in series [2] amounted to 163 µL/min/mg; in series [4], 28.3 µL/min/mg; in series [6], 90.3 µL/min/mg. The Ki in series [8] came out at 5.5 µM.

Consider `O=C1CCCC[C@@]1(c1ccccc1)N1CCOCC1` [Compound 31S, (S)-2-morpholino-2-phenylcyclohexan-1-one], for which the inhibition at 10 µM in series [1] was -7.9%; in series [3], -5.5%; in series [5], 1.6%; in series [7], 16.9%. In addition, the half-life at 1 μM in series [2] is 10.8 min; in series [4] it was 61 min; in series [6], 9.6 min. In addition, the intrinsic metabolic clearance (microsomal CLint) at 1 μM in series [2] was found to be 128 µL/min/mg; in series [4] it was 22.7 µL/min/mg; in series [6], 144 µL/min/mg. The Ki in series [8] is greater than 23 µM.

As for `COCCN[C@]1(c2ccccc2)CCCCC1=O` [Compound 29S, (5)-2-((2-methoxyethyl)amino)-2-phenylcyclohexan-1-one], the inhibition at 10 µM in series [1] is -12.9%; in series [3], -10.5%; in series [5], 4%; in series [7] it was 13.7%. The half-life at 1 μM in series [2] is 35.7 min; in series [4], greater than 145 min; in series [6], 31.8 min. Further, the microsomal CLint at 1 μM in series [2] was 35.8 µL/min/mg; in series [4] it was less than 9.6 µL/min/mg; in series [6] it was 43.6 µL/min/mg. Further, in series [8], the Ki amounted to 8.2 µM.

As for `Cc1ccc(C2(N)CCCCC2=O)cc1` (racemic) [Compound 120rac, 2-amino-2-(p-tolyl)cyclohexan-1-one], the inhibition at 10 µM in series [1] turned out to be 27.5%; in series [3] it was 41%; in series [5], 7.1%; in series [7] it was 5.3%. The values for the half-life at 1 μM in series [2], in series [4] and in series [6] were 112 min, greater than 145 min and 3.6 min, respectively. The microsomal CLint at 1 μM in series [2] is 12.4 µL/min/mg; in series [4] it was less than 9.6 µL/min/mg; in series [6], 380 µL/min/mg. The Ki in series [8] is 23 µM.

The term inhibition denotes the drop in the measured response relative to a control, in per cent. The term half-life denotes how long it takes for the measured level to halve. High values mean slow loss, low ones fast loss. By microsomal CLint is commonly meant the capacity of the preparation to metabolise the compound, expressed as a volume cleared per time. Lower therefore signals slow turnover. The term Ki denotes a dissociation constant, usually derived from enzyme kinetics or from competition with a known ligand.
